Where a name gives a salt, the structure may show the parent alone.
Key:
Details in all cases: 72 h
Caco-2 [1] = experiment: cell viability relative to DMSO; higher = less toxic
Calu-3 [2] = experiment: as above
HepG2 [3] = experiment: as above
Vero E6 [4] = experiment: as above
Caco-2 [5] = experiment: relative viability EC50 (midpoint between 100% and the lowest measured viability); higher = less toxic
Calu-3 [6] = experiment: as above
HepG2 [7] = experiment: as above
Vero E6 [8] = experiment: as above
Caco-2 [9] = experiment: drug sensitivity score (DSS) for viability; higher = more toxic; extreme values may be limits of the assay
Calu-3 [10] = experiment: as above
HepG2 [11] = experiment: as above
Vero E6 [12] = experiment: as above
U2OS [13] = experiment: cell viability relative to DMSO; higher = less toxic
U2OS [14] = experiment: relative viability EC50 (midpoint between 100% and the lowest measured viability); higher = less toxic
U2OS [15] = experiment: drug sensitivity score (DSS) for viability; higher = more toxic; extreme values may be limits of the assay

| Compound | cell viability (Caco-2 [1]; 1 nM) | cell viability (Caco-2 [1]; 10 nM) | cell viability (Caco-2 [1]; 100 nM) | cell viability (Caco-2 [1]; 1000 nM) | cell viability (Caco-2 [1]; 10000 nM) | cell viability (Calu-3 [2]; 1 nM) | cell viability (Calu-3 [2]; 10 nM) | cell viability (Calu-3 [2]; 100 nM) | cell viability (Calu-3 [2]; 1000 nM) | cell viability (Calu-3 [2]; 10000 nM) | cell viability (HepG2 [3]; 1 nM) | cell viability (HepG2 [3]; 10 nM) | cell viability (HepG2 [3]; 100 nM) | cell viability (HepG2 [3]; 1000 nM) | cell viability (HepG2 [3]; 10000 nM) | cell viability (Vero E6 [4]; 1 nM) | cell viability (Vero E6 [4]; 10 nM) | cell viability (Vero E6 [4]; 100 nM) | cell viability (Vero E6 [4]; 1000 nM) | cell viability (Vero E6 [4]; 10000 nM) | relative viability EC50 (Caco-2 [5]) | relative viability EC50 (Calu-3 [6]) | relative viability EC50 (HepG2 [7]) | relative viability EC50 (Vero E6 [8]) | drug sensitivity score (Caco-2 [9]) | drug sensitivity score (Calu-3 [10]) | drug sensitivity score (HepG2 [11]) | drug sensitivity score (Vero E6 [12]) | cell viability (U2OS [13]; 1 nM) | cell viability (U2OS [13]; 10 nM) | cell viability (U2OS [13]; 100 nM) | cell viability (U2OS [13]; 1000 nM) | cell viability (U2OS [13]; 10000 nM) | relative viability EC50 (U2OS [14]) | drug sensitivity score (U2OS [15]) |
| --- | --- | --- | --- | --- | --- | --- | --- | --- | --- | --- | --- | --- | --- | --- | --- | --- | --- | --- | --- | --- | --- | --- | --- | --- | --- | --- | --- | --- | --- | --- | --- | --- | --- | --- | --- |
| CNC(=O)Nc1ccc(-c2nc(N3CC4CCC(C3)O4)c3cnn(C4CCC5(CC4)OCCO5)c3n2)cc1 | 111% | 85.1% | 50.6% | 32.3% | 33.1% | 94.2% | 67.2% | 36.7% | 28% | 30.7% | 98.6% | 97.6% | 47.1% | 31.2% | 20.8% | 94.1% | 93% | 70.1% | 43.8% | 36.4% | 0.0381 µM | 0.0122 µM | 0.0648 µM | 0.109 µM | 19.5 | 25.1 | 20.8 | 14.1 |  |  |  |  |  |  |  |
| Nc1nc(NC2CC2)c2ncn([C@H]3C=C[C@@H](CO)C3)c2n1 [ABACAVIR SULFATE] | 102% | 104% | 94.3% | 98.4% | 95.1% | 89.4% | 96.3% | 97.7% | 100% | 97.1% | 101% | 95.2% | 97.7% | 90.3% | 96% |  |  |  |  |  | > 10 µM | > 10 µM | > 10 µM |  | 0 | 0 | 0 |  | 99.9% | 102% | 97.1% | 106% | 99.7% | > 10 µM | 0 |
| O=C(/C=C/c1ccc2ccccc2n1)c1ccncc1 [PFK-015] | 93.3% | 96.3% | 95.8% | 90.6% | 29.7% | 107% | 105% | 88% | 97% | 59.2% | 106% | 89.6% | 110% | 85% | 0.1% | 101% | 94.9% | 98% | 94.1% | 4.2% | 2.09 µM |  | 1.99 µM | 2.68 µM | 5.5 | 2.5 | 8 | 6.2 | 93% | 94.8% | 95.4% | 94% | 0% | 2.69 µM | 6.4 |
| CCn1cc(C(=O)O)c(=O)c2cnc(N3CCCC3)nc21 [piromidic-acid] | 103% | 90.3% | 97.6% | 97.1% | 93.7% | 101% | 74.8% | 95.1% | 87% | 98.6% | 93% | 104% | 96.9% | 103% | 99.3% |  |  |  |  |  | > 10 µM | > 10 µM | > 10 µM |  | 0 | 0 | 0 |  | 99.8% | 98% | 100% | 99.1% | 102% | > 10 µM | 0 |
| CN1C(C)(C)CCCC1(C)C [pempidine] | 102% | 89.1% | 95.1% | 99.5% | 109% | 114% | 105% | 98.3% | 107% | 110% | 96% | 103% | 98.1% | 105% | 84.7% | 97.4% | 100% | 95.1% | 95.7% | 94.4% | > 10 µM | > 10 µM | > 10 µM | > 10 µM | 0 | 0 | 0.1 | 0 |  |  |  |  |  |  |  |
| O=C1C2CC=CCC2C(=O)N1SC(Cl)(Cl)Cl (centres undefined) [captan] | 102% | 102% | 101% | 98.6% | 88.9% | 99.9% | 99.6% | 102% | 106% | 99.4% | 101% | 93.1% | 85.8% | 86.3% | 82.1% |  |  |  |  |  | > 10 µM | > 10 µM | > 10 µM |  | 0 | 0 | 3.1 |  | 105% | 100% | 105% | 96.1% | 92.1% | > 10 µM | 0 |

Reference: the supplement of paper PMC13380429
